Results taken from patent publication US8168651B2, “Protein kinase modulators” (Cylene Pharmaceuticals, Inc., priority 2008, dated 2012).
Blank lines part the entries; values can stand above or below the compound they belong to.

How the values were obtained:
Assay in all cases: Standardized radiometric kinase assays, percentage of activity at 0.5 μM;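 note: Read-out is ³³P-labelled substrate protein phosphorylated by each kinase, captured on filters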
[1] = molecular target: each individual kinase of the panel (Homo sapiens, UniProt Q16832)
[2] = molecular target: each individual kinase of the panel (Homo sapiens, UniProt Q9H422); conditions: for % Activity: HIPK3(h)
[3] = molecular target: each individual kinase of the panel (Homo sapiens, UniProt Q04912); conditions: for % Activity: Ron(h)
Sequence of each individual kinase of the panel (Homo sapiens, UniProt Q04912) (Q04912 25-304 limits assumed): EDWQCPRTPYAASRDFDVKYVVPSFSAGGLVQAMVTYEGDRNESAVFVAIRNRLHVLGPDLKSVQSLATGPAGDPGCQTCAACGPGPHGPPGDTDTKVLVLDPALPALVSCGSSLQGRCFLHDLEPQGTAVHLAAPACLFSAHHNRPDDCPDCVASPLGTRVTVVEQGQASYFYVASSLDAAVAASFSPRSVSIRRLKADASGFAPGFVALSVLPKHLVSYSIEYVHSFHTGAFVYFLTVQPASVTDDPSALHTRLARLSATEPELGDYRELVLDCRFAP
Sequence of each individual kinase of the panel (Homo sapiens, UniProt Q04912) (Q04912 310-1400 limits assumed): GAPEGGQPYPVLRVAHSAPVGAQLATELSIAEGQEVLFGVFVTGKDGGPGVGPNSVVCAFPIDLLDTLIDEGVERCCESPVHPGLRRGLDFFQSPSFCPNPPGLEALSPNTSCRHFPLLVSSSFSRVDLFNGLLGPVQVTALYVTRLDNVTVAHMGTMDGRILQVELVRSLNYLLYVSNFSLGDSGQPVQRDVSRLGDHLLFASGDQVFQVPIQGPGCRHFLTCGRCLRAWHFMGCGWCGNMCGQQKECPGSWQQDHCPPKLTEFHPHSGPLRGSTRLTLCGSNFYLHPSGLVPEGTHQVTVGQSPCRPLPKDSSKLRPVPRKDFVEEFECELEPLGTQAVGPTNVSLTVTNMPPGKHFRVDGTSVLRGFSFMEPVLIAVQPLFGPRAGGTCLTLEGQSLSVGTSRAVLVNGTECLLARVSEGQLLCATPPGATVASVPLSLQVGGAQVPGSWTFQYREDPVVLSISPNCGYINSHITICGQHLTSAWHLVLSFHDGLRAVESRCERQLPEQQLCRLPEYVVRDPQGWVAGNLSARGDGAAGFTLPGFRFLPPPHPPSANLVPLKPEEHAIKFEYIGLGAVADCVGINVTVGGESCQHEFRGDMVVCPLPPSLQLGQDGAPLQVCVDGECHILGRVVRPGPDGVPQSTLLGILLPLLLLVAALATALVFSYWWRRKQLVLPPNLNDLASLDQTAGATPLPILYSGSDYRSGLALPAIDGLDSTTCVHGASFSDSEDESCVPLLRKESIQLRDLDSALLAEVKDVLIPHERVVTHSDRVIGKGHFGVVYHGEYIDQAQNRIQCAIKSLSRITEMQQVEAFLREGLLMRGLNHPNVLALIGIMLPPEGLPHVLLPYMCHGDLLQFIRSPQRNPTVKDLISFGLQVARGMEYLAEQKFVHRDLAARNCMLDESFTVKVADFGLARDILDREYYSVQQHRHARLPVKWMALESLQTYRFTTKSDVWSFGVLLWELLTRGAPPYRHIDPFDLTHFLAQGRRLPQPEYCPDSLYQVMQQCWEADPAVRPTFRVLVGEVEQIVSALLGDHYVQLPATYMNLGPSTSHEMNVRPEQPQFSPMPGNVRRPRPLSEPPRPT

[4] = molecular target: each individual kinase of the panel (Homo sapiens, UniProt Q13464); conditions: for % Activity: ROCK-I(h)
Sequence of each individual kinase of the panel (Homo sapiens, UniProt Q13464) (Q13464 2-1354 limits assumed): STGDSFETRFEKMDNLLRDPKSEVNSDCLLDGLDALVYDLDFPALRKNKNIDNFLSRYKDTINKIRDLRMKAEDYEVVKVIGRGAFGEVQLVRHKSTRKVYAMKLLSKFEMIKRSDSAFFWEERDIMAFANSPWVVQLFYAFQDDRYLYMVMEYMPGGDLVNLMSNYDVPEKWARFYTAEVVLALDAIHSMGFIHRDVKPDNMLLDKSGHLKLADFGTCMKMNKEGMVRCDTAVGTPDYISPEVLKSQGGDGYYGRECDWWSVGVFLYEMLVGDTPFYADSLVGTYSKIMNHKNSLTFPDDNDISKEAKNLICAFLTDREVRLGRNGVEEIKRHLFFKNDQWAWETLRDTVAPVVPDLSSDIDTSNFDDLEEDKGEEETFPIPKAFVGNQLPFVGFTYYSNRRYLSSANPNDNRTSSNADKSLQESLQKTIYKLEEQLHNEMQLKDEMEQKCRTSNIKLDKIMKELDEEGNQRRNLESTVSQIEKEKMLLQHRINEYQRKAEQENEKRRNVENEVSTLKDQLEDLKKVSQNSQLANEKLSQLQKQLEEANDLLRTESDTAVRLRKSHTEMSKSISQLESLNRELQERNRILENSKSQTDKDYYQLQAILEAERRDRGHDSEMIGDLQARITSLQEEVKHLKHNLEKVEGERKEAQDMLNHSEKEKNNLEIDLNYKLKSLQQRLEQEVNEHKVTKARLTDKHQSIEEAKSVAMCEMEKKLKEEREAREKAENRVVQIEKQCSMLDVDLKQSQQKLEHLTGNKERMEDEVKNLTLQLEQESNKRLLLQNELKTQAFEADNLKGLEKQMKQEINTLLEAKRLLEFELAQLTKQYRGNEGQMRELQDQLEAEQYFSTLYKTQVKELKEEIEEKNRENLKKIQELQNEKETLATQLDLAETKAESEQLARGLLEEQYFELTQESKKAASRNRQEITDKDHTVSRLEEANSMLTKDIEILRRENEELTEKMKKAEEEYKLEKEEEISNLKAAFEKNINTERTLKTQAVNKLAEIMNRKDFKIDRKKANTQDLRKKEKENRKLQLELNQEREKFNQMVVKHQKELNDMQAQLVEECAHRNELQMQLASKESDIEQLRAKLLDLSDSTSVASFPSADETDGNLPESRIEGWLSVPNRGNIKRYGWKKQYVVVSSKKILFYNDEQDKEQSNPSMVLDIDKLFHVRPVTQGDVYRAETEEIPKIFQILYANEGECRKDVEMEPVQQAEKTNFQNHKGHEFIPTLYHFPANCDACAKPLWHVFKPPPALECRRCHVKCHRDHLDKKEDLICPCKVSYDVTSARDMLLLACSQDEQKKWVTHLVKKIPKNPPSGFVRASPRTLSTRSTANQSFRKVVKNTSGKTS

[5] = molecular target: each individual kinase of the panel (Homo sapiens, UniProt Q13043); conditions: for % Activity: MST1(h)
[6] = molecular target: each individual kinase of the panel (Homo sapiens, UniProt Q05397); conditions: for % Activity: FAK(h)
Sequence of each individual kinase of the panel (Homo sapiens, UniProt Q05397) (Q05397 2-1052 limits assumed): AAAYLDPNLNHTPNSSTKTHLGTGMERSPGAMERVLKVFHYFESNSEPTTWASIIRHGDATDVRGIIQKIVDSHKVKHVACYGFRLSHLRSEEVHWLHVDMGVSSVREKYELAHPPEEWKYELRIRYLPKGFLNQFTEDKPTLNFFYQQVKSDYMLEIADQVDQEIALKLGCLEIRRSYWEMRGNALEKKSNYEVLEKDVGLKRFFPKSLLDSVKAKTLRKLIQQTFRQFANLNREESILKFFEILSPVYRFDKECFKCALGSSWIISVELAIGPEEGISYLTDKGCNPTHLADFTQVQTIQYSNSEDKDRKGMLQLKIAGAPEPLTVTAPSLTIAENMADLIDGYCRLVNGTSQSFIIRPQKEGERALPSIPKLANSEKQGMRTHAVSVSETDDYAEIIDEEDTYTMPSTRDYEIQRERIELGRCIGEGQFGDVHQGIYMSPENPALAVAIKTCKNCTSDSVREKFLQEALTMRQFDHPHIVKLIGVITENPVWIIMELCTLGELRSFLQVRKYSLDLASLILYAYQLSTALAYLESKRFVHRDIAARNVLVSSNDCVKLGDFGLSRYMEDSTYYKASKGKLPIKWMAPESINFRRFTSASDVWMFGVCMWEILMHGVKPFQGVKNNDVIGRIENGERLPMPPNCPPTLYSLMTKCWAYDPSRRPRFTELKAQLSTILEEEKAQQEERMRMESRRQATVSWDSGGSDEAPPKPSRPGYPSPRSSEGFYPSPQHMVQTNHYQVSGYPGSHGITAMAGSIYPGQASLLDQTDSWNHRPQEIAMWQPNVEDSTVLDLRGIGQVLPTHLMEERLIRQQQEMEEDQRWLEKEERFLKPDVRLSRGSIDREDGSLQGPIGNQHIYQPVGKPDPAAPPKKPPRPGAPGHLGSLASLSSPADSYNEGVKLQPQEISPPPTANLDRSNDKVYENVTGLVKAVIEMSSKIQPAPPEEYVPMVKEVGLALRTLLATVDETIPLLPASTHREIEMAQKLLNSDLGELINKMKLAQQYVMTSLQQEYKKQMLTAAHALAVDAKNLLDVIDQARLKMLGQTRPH

[7] = molecular target: each individual kinase of the panel (Homo sapiens, UniProt P36888); conditions: for % Activity: Flt3(h)
[8] = molecular target: each individual kinase of the panel (Homo sapiens, UniProt O43318); conditions: for % Activity: TAK1(h)
[9] = molecular target: each individual kinase of the panel (Homo sapiens, UniProt P00533, L858R/T790M); conditions: for % Activity: EGFR(T790M,L858R)(h)
[10] = molecular target: each individual kinase of the panel (Homo sapiens, UniProt P51812); conditions: for % Activity: Rsk2(h)
[11] = molecular target: each individual kinase of the panel (Homo sapiens, UniProt Q15418); conditions: for % Activity: Rsk1(h)
[12] = molecular target: each individual kinase of the panel (Homo sapiens, UniProt Q9UEE5); conditions: for % Activity: DRAK1(h)
[13] = molecular target: each individual kinase of the panel (Homo sapiens, UniProt P36888, D835Y); conditions: for % Activity: Flt3(D835Y)(h)
[14] = molecular target: each individual kinase of the panel (Homo sapiens, UniProt O15530); conditions: for % Activity: PDK1(h)
[15] = molecular target: each individual kinase of the panel (Homo sapiens, UniProt P10721); conditions: for % Activity: cKit(h)
Sequence of each individual kinase of the panel (Homo sapiens, UniProt P10721) (P10721 26-976 limits assumed): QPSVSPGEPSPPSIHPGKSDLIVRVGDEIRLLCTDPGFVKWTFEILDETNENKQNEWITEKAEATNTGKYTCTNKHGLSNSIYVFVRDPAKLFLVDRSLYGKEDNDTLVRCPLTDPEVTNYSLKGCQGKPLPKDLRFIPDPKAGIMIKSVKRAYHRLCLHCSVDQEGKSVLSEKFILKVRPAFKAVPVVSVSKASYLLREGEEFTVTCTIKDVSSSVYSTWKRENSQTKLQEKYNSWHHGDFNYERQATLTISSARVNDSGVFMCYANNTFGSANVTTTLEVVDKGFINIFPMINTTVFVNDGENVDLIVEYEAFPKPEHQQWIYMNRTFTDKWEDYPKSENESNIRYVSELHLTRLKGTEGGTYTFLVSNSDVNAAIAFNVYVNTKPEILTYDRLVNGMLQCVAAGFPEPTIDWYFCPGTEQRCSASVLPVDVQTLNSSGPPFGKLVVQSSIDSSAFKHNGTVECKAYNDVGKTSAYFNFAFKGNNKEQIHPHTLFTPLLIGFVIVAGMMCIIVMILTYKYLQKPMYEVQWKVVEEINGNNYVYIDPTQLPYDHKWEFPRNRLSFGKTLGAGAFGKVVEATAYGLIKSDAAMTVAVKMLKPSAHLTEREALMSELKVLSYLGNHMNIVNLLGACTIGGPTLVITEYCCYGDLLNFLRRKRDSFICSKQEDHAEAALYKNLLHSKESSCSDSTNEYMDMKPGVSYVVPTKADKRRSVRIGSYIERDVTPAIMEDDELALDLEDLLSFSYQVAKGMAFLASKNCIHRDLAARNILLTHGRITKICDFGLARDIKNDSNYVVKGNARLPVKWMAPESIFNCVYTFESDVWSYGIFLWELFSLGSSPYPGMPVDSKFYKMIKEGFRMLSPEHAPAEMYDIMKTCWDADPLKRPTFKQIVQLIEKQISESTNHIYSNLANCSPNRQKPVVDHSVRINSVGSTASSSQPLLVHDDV

[16] = molecular target: each individual kinase of the panel (Homo sapiens, UniProt P19784); conditions: for % Activity: CK2α2(h)
[17] = molecular target: each individual kinase of the panel (Homo sapiens, UniProt Q99683); conditions: for % Activity: ASK1(h)
[18] = molecular target: each individual kinase of the panel (Homo sapiens, UniProt Q96SB4); conditions: for % Activity: SRPK1(h)
[19] = molecular target: each individual kinase of the panel (Homo sapiens, UniProt P78368); conditions: for % Activity: CK1γ2(h)
[20] = molecular target: each individual kinase of the panel (Homo sapiens, UniProt Q9HCP0); conditions: for % Activity: CK1γ1(h)
[21] = molecular target: each individual kinase of the panel (Homo sapiens, UniProt P50750); conditions: for % Activity: CDK9/cyclin T1 (h)
[22] = molecular target: each individual kinase of the panel (Homo sapiens, UniProt Q14680); conditions: for % Activity: MELK(h)
[23] = molecular target: each individual kinase of the panel (Homo sapiens, UniProt P07948); conditions: for % Activity: Lyn(h)
[24] = molecular target: each individual kinase of the panel (Homo sapiens, UniProt Q02763); conditions: for % Activity: Tie2(h)
[25] = molecular target: each individual kinase of the panel (Homo sapiens, UniProt P00533); conditions: for % Activity: EGFR(h)
[26] = molecular target: each individual kinase of the panel (Homo sapiens, UniProt P51955)
[27] = molecular target: each individual kinase of the panel (Homo sapiens, UniProt Q9UM73)
[28] = molecular target: each individual kinase of the panel (Homo sapiens, UniProt Q9H4B4)
[29] = molecular target: each individual kinase of the panel (Homo sapiens, UniProt P28482)
Sequence of each individual kinase of the panel (Homo sapiens, UniProt P28482) (P28482 2-360 limits assumed): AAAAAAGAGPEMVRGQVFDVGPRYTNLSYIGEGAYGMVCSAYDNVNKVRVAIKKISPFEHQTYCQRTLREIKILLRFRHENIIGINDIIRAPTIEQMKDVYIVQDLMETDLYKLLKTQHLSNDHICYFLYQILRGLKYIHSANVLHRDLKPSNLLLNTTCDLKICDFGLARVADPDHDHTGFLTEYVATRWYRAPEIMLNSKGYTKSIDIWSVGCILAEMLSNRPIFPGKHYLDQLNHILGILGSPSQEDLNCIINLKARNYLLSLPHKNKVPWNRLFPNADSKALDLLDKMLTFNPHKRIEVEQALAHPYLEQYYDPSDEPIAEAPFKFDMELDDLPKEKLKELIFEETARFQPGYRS

Structure (SMILES): Clc1ccccc1Nc1nc2c(-c3nnc[nH]3)cccc2c2cnccc12 [A]
% Activity ([1]; DDR2(h)): 90%
% Activity [2]: 2%
% Activity [3]: 99%
% Activity [4]: 94%
% Activity [5]: 44%
% Activity [6]: 30%
% Activity [7]: 5%
% Activity [8]: 28%
% Activity [9]: 20%
% Activity [10]: 13%
% Activity [11]: 6%
% Activity [12]: 75%
% Activity [13]: 24%
% Activity [14]: 101%
% Activity [15]: 89%
% Activity [16]: 73%
% Activity [17]: 92%
% Activity [18]: 107%
% Activity [19]: 17%
% Activity [20]: 30%
% Activity [21]: 37%
% Activity [22]: 13%
% Activity [23]: 75%
% Activity [24]: 108%
% Activity [25]: 111%

Structure (SMILES): C#Cc1cccc(Nc2nc3cc(C(=O)O)ccc3c3cncnc23)c1 [drawing 1135]
NEK2 percentage of activity [26]: 23%
DDR2 percentage of activity [1]: −9%
HIPK3 percentage of activity [2]: 90%
RON percentage of activity [3]: −6%
ROCK-I percentage of activity [4]: 3%
MST1 percentage of activity [5]: 4%
FAK percentage of activity [6]: 3%
FLT3 percentage of activity [7]: 58%
TAK1 percentage of activity [8]: −1%
RPS6KA3 percentage of activity [10]: 34%
RPS6KA1 percentage of activity [11]: 22%
DRAK1 percentage of activity [12]: 38%
FLT3(D835Y) percentage of activity [13]: 83%
ALK percentage of activity [27]: −12%
PDK1 percentage of activity [14]: −10%
cKit(h) percentage of activity [15]: −14%
PLK3 percentage of activity [28]: −6%
ASK percentage of activity [17]: −16%
SRPK1 percentage of activity [18]: 34%
CK1 gamma 2 percentage of activity [19]: −7%
CK1 gamma 1 percentage of activity [20]: −5%
CDK9/cyclin T1 percentage of activity [21]: 0%
MELK percentage of activity [22]: 51%
ERK2 percentage of activity [29]: 5%
MAPK2 percentage of activity [29]: −4%
TIE2 percentage of activity [24]: 1%
EGFR percentage of activity [25]: −23%

Further lines, results first:

% Activity ([26]; NEK2(h)): 95%
% Activity [2]: −1%
% Activity [3]: 95%
% Activity [4]: 97%
% Activity [5]: 80%
% Activity [6]: 106%
% Activity [7]: 7%
% Activity [8]: 79%
% Activity [9]: 59%
% Activity [10]: 40%
% Activity [11]: 21%
% Activity [12]: 15%
% Activity [13]: 2%
% Activity ([27]; ALK(h)): 100%
% Activity [14]: 88%
% Activity [15]: 88%
% Activity ([28]; Plk3(h)): 102%
% Activity [16]: 51%
% Activity [17]: 93%
% Activity [18]: 91%
% Activity [19]: 63%
% Activity [20]: 71%
% Activity [21]: 18%
% Activity [22]: 14%
% Activity [23]: 75%
% Activity [24]: 93%
% Activity [25]: 101%
Structure (SMILES): NC(=O)c1cccc2c1nc(Nc1cccc(Cl)c1)c1ccncc12 [B]

NEK2 percentage of activity [26]: 73%
DDR2 percentage of activity [1]: 12%
HIPK3 percentage of activity [2]: 91%
RON percentage of activity [3]: 9%
ROCK-I percentage of activity [4]: 12%
MST1 percentage of activity [5]: −3%
FAK percentage of activity [6]: −2%
FLT3 percentage of activity [7]: 90%
TAK1 percentage of activity [8]: 6%
EGFR(T790M, L858R) percentage of activity [9]: 26%
RPS6KA3 percentage of activity [10]: 53%
RPS6KA1 percentage of activity [11]: 54%
DRAK1 percentage of activity [12]: 65%
FLT3(D835Y) percentage of activity [13]: 97%
ALK percentage of activity [27]: −20%
PDK1 percentage of activity [14]: 8%
cKit(h) percentage of activity [15]: 15%
PLK3 percentage of activity [28]: −1%
ASK percentage of activity [17]: −1%
SRPK1 percentage of activity [18]: 63%
CK1 gamma 2 percentage of activity [19]: 35%
CK1 gamma 1 percentage of activity [20]: 10%
CDK9/cyclin T1 percentage of activity [21]: 27%
MELK percentage of activity [22]: 77%
ERK2 percentage of activity [29]: 21%
LYN percentage of activity [23]: 20%
TIE2 percentage of activity [24]: −12%
EGFR percentage of activity [25]: 24%
Structure (SMILES): C#Cc1cccc(Nc2nc3cc(C(=O)O)ccc3c3cnccc23)c1 [drawing 1137]

NEK2 percentage of activity [26]: 13%
DDR2 percentage of activity [1]: 5%
HIPK3 percentage of activity [2]: 57%
RON percentage of activity [3]: −3%
ROCK-I percentage of activity [4]: 11%
MST1 percentage of activity [5]: 15%
FAK percentage of activity [6]: 4%
FLT3 percentage of activity [7]: 100%
TAK1 percentage of activity [8]: 12%
EGFR(T790M, L858R) percentage of activity [9]: 48%
RPS6KA1 percentage of activity [11]: 55%
DRAK1 percentage of activity [12]: −5%
FLT3(D835Y) percentage of activity [13]: 99%
ALK percentage of activity [27]: −2%
PDK1 percentage of activity [14]: 7%
cKit(h) percentage of activity [15]: −10%
PLK3 percentage of activity [28]: 0%
CK2 alpha 2 percentage of activity [16]: 96%
ASK percentage of activity [17]: 2%
SRPK1 percentage of activity [18]: 7%
CK1 gamma 2 percentage of activity [19]: −5%
CK1 gamma 1 percentage of activity [20]: 7%
CDK9/cyclin T1 percentage of activity [21]: 45%
MELK percentage of activity [22]: 73%
ERK2 percentage of activity [29]: 15%
LYN percentage of activity [23]: 16%
TIE2 percentage of activity [24]: 45%
EGFR percentage of activity [25]: 15%
Structure (SMILES): NC(=O)c1ccc2c(c1)nc(Nc1cccc(Cl)c1)c1ccncc12 [drawing 1138]
